System: human maximum recommended daily dose, FDA database
Assay: DSSTox (FDAMDD) FDA Maximum (Recommended) Daily Dose Database
Conditions: active compounds read low
Summary of the method: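 MRDD values come from clinical trials with daily oral dosing, usually for 3–12 months, for the average adult, in mg/day converted to mg/kg-bw/day assuming 60 kg. Antineoplastic mg/m2 doses are divided by 37. Activity score maps log10(1/MRDD mmol) onto 1–100.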

[1] = TherapeuticCategory: antibacterial
[2] = TherapeuticCategory: antidepressant
[3] = TherapeuticCategory: anticholinergic
[4] = TherapeuticCategory: anesthetic

SMILES: NC(CO)(CO)CO
- maximum recommended daily dose (mmol/kg-bw/day) (TherapeuticCategory: alkalizer): 2.48

SMILES: CO[C@@H]1[C@@H](OC(N)=O)[C@@H](O)[C@H](Oc2ccc3c(O)c(NC(=O)c4ccc(O)c(CC=C(C)C)c4)c(=O)oc3c2C)OC1(C)C
- maximum recommended daily dose (mmol/kg-bw/day) [1]: 0.0394

SMILES: N[C@@H](Cc1cc(I)c(Oc2ccc(O)c(I)c2)c(I)c1)C(=O)O
- maximum recommended daily dose (mmol/kg-bw/day) (TherapeuticCategory: thyroid hormone): 2.57e-06

SMILES: CCN[C@H]1C[C@H](C)S(=O)(=O)c2sc(S(N)(=O)=O)cc21
- maximum recommended daily dose (mmol/kg-bw/day) (TherapeuticCategory: antiglaucomal agent, carbonic anhydrase inhibitor): 0.00308

SMILES: CNC(C)CCC=C(C)C (stereo not given)
- maximum recommended daily dose (mmol/kg-bw/day) (TherapeuticCategory: adrenergic, bronchodilator, mydriatic, antiglaucoma): 0.0384

SMILES: CC1(C)S[C@@H]2[C@H](NC(=O)C3(N)CCCCC3)C(=O)N2[C@H]1C(=O)O
- maximum recommended daily dose (mmol/kg-bw/day) [1]: 0.0975

SMILES: CCC1C(C)=NN=C(c2ccc(OC)c(OC)c2)c2cc(OC)c(OC)cc21 (stereo not given)
- maximum recommended daily dose (mmol/kg-bw/day) (TherapeuticCategory: anxiolytic): 0.00654

SMILES: O=C(CCNNC(=O)c1ccncc1)NCc1ccccc1
- maximum recommended daily dose (mmol/kg-bw/day) [2]: 0.0112

SMILES: CCN(CC)CCOC(=O)C(c1ccccc1)c1ccccc1
- maximum recommended daily dose (mmol/kg-bw/day) [3]: 0.0241

SMILES: CC(Oc1ccccc1)C(=O)N[C@@H]1C(=O)N2[C@@H]1SC(C)(C)[C@@H]2C(=O)O (stereo not given in full)
- maximum recommended daily dose (mmol/kg-bw/day) [1]: 0.137

SMILES: CC(NC(C)(C)C)C(=O)c1cccc(Cl)c1 (stereo not given)
- maximum recommended daily dose (mmol/kg-bw/day) [2]: 0.0313

SMILES: O=C(O)c1cc(N=Nc2ccc(O)c(C(=O)O)c2)ccc1O
- maximum recommended daily dose (mmol/kg-bw/day) (TherapeuticCategory: treatment of ulcerative colitis): 0.0553

SMILES: CCN(CC)C(=O)N[C@H]1C=C2c3cccc4[nH]cc(c34)C[C@H]2N(C)C1
- maximum recommended daily dose (mmol/kg-bw/day) (TherapeuticCategory: antimigraine, prolactin inhibitor): 0.000246

SMILES: CCC1(c2ccccc2)C(=O)NC(=O)N(C)C1=O (stereo not given)
- maximum recommended daily dose (mmol/kg-bw/day) (TherapeuticCategory: anticonvulsant, sedative, hypnotic): 0.0406

SMILES: CC(C)c1cccc(C(C)C)c1O
- maximum recommended daily dose (mmol/kg-bw/day) [4]: 0.014

SMILES: Cc1cn([C@H]2C[C@H](O)[C@@H](CO)O2)c(=O)[nH]c1=O
- maximum recommended daily dose (mmol/kg-bw/day) (TherapeuticCategory: none): 0.413

SMILES: CN1CCC(=C2c3ccccc3C=Cc3ccccc32)CC1
- maximum recommended daily dose (mmol/kg-bw/day) (TherapeuticCategory: antihistaminic, antipruritic): 0.00174

SMILES: CS(=O)(=O)c1ccc([C@@H](O)[C@@H](COC(=O)CN)NC(=O)C(Cl)Cl)cc1
- maximum recommended daily dose (mmol/kg-bw/day) [1]: 0.111

SMILES: Nc1ccn([C@H]2CC[C@@H](CO)O2)c(=O)n1
- maximum recommended daily dose (mmol/kg-bw/day) (TherapeuticCategory: antiviral): 0.000178

SMILES: CCN(CC)CCOc1ccc(/C(=C(\Cl)c2ccccc2)c2ccccc2)cc1
- maximum recommended daily dose (mmol/kg-bw/day) (TherapeuticCategory: gonad stimulating): 0.00411

SMILES: CN1c2cc(O)c(N=NC(N)=O)cc2CC1S(=O)(=O)O (stereo not given)
- maximum recommended daily dose (mmol/kg-bw/day) (TherapeuticCategory: hemostatic): 0.00931

SMILES: O=[N+]([O-])c1cc(Cl)cc(-c2cc(Cl)cc([N+](=O)[O-])c2O)c1O
- maximum recommended daily dose (mmol/kg-bw/day) (TherapeuticCategory: none): 0.0058

SMILES: Cc1cccc(Nc2ccccc2C(=O)O)c1C
- maximum recommended daily dose (mmol/kg-bw/day) (TherapeuticCategory: anti inflammatory): 0.0862

SMILES: COc1cc(C(=O)NC2CCCNC2)cc(OC)c1OC (stereo not given)
- maximum recommended daily dose (mmol/kg-bw/day) (TherapeuticCategory: antiulcerative): 0.017

SMILES: CCC[C@H](N[C@@H](C)C(=O)N1[C@H](C(=O)O)C[C@@H]2CCCC[C@@H]21)C(=O)OCC
- maximum recommended daily dose (mmol/kg-bw/day) (TherapeuticCategory: antihypertensive, ACE inhibitor): 0.000361

SMILES: CN(C)CCO
- maximum recommended daily dose (mmol/kg-bw/day) [2]: 0.168

SMILES: CCN(CC)CCNc1ccc(C)c2sc3ccccc3c(=O)c12
- maximum recommended daily dose (mmol/kg-bw/day) (TherapeuticCategory: antihelmintic): 0.0978

SMILES: CC1=C(C/C=C(\C)CCC[C@H](C)CCC[C@H](C)CCCC(C)C)C(=O)c2ccccc2C1=O
- maximum recommended daily dose (mmol/kg-bw/day) (TherapeuticCategory: prothrombogenic vitamin): 0.000925

SMILES: C[C@H](N)Cc1ccccc1
- maximum recommended daily dose (mmol/kg-bw/day) (TherapeuticCategory: CNS stimulant, anorexic): 0.0074

SMILES: O=NN(CCCl)C(=O)NC1CCCCC1
- maximum recommended daily dose (mmol/kg-bw/day) (TherapeuticCategory: antineoplastic): 0.015

SMILES: NC(=O)c1cccnc1
- maximum recommended daily dose (mmol/kg-bw/day) (TherapeuticCategory: vitamin): 0.0682

SMILES: CCCN(CCC)C(=O)C(CCC(=O)O)NC(=O)c1ccccc1 (stereo not given)
- maximum recommended daily dose (mmol/kg-bw/day) [3]: 0.0798

SMILES: CC(C)NCC1CCc2cc(CO)c([N+](=O)[O-])cc2N1 (stereo not given)
- maximum recommended daily dose (mmol/kg-bw/day) (TherapeuticCategory: anthelmintic): 0.215

SMILES: C=CCC1(C(C)C#CCC)C(=O)NC(=O)N(C)C1=O (stereo not given)
- maximum recommended daily dose (mmol/kg-bw/day) [4]: 0.00762

SMILES: CN(C(=O)C(Cl)Cl)c1ccc(O)cc1
- maximum recommended daily dose (mmol/kg-bw/day) (TherapeuticCategory: antiamebic): 0.107

SMILES: NS(=O)(=O)c1cc2c(cc1C(F)(F)F)NCNS2(=O)=O
- maximum recommended daily dose (mmol/kg-bw/day) (TherapeuticCategory: antihypertensive, diuretic): 0.0101

SMILES: CN1C(CCl)Nc2cc(Cl)c(S(N)(=O)=O)cc2S1(=O)=O (stereo not given)
- maximum recommended daily dose (mmol/kg-bw/day) (TherapeuticCategory: diuretic, antihypertensive): 0.000464

SMILES: CCCCC(=O)O[C@]1(C(=O)COC(C)=O)CC[C@H]2[C@@H]3CCC4=CC(=O)C=C[C@]4(C)[C@H]3[C@@H](O)C[C@@]21C
- maximum recommended daily dose (mmol/kg-bw/day) (TherapeuticCategory: glucocorticoid): 0.00684

SMILES: Cn1nnnc1SCC1=C(C(=O)O)N2C(=O)[C@@H](NC(=O)[C@H](O)c3ccccc3)[C@H]2SC1
- maximum recommended daily dose (mmol/kg-bw/day) [1]: 0.216

SMILES: CN(C)CCCN1c2ccccc2Sc2ccc(Cl)cc21
- maximum recommended daily dose (mmol/kg-bw/day) (TherapeuticCategory: antiemetic, antipsychotic): 0.0524
